From patent US11982676B2, “Near-infrared fluorescent nanoprobe” (VALORISATION-RECHERCHE, LIMITED PARTNERSHIP, priority 2021, dated 2024)

Tests used:
[1] = tested on: HuH6 cells; assay: Two-photon photobleaching test and excitation profile in fixed HuH6 cells; set-up: species or system human; details: λex=860 nm, 30 mins, 400 Hz, laser output power 2.55 W
Protocol: To further assess a possible toxicity of the Dyes@BNNT, we performed an additional set of experiments at the scale of a cell. We incubated 10 μg·mL^−1 of a PEG-6T@BNNT solution for 24 hours with human hepatoblastoma HuH6 cells, which is one of the model cell lines used for toxicology studies. […] FIGS. 5a and 5c show fluorescence spectra consistent with DiA (green) and PEG-6T@BNNT (red) separated in the regions 2 and 1, respectively. […] The fluorescence of both the DiA and PEG-6T@BNNT, as a function of the excitation wavelength between 740 nm and 1020 nm, is shown in FIG. 5d. The resonance maximum of DiA is measured at 880 nm, which is distinct from the resonance of the PEG-6T@BNNT located at ˜740 nm, a position similar to that of functionalized polythiophene. […] To directly compare exposed and non-exposed cells, FIG. 5b presents a two-photon hyperspectral fluorescence image taken in a field of view slightly larger than the photobleaching test area. […]
3.2 Characterization by Raman and Photoluminescence. […] The equipment of the different setups is summarized in Table S2 and are described as follows: • The Luminescence images and photobleaching experiments, as presented in FIG. 3, main text, were performed at λex=532 nm using the Raman/PL mapping system RIMA™ (Photon etc.). […]

[2] = Chemical stability on Si/SiO2: oxygen plasma, thermal annealing, piranha; type: physicochemical; details: oxygen plasma of 100 W for 10 minutes
Protocol: The chemical stability of the nanohybrids is tested using individualized 6T@BNNT bundles on Si/SiO2 exposed to an oxygen plasma of 100 W for 10 minutes. […] The enhanced stability of the encapsulated dyes has also been observed upon thermal annealing up to 350° C. in air and using piranha solutions (not shown). […] The chemical and physical stability experiments have been repeated on a number of Dyes@BNNT nanohybrids of different lengths deposited on substrates or dispersed in a solution (See e.g. Supplementary Figs. 10 and 11). All of the results lead us to the same conclusion, which underlines the tremendous gain in stability inferred by the confinement of the 1D cavity of BNNTs.

[3] = tested on: Daphnia pulex; assay: Incubation of Daphnia pulex with samples in FLAMES medium, evaluation of potential toxicity; type: in vivo
Source text: The impressive robustness and fading-free properties of the Dyes@BNNT are appealing for bio-imaging applications. FIG. 4 presents an example of the use of nanohybrids to make optical nanoprobes for imaging living Daphnia pulex microorganisms in water—see bright-field image in FIG. 4a #1. Daphnia (also called water fleas) are common planktonic crustaceans, which find use as chemical sensors in ecotoxicology studies, thanks to their high sensitivity to water quality. To acquire the bio-images (FIG. 4a #2-5), we first solubilized the Dyes@BNNTs in a water-based living medium called FLAMES, using a poly (ethylene) glycol derivative (mPEG-DSPE) (Supplementary Section 2.9). […] Living daphniids were imaged under a fluorescence microscope equipped with UBG filter and a 10× objective. […] This natural blue-green signal originates from the auto-fluorescence of the tissues in FLAMES through the UBG filter, which disappears after death or after few minutes only of photobleaching. […]
Before any experiment, many adult individuals of Daphnia pulex (clones DISP 1312) were kept at 22° C. in FLAMES with algae for 4 days, allowing a new reproducing cycle. Then, the specimens were transferred to a FLAMES medium algae-free and maintained this condition for at least 1 day to clean the digestive system and limit the fluorescence from the algae themselves during the images/time lapse acquisition—FIG. 8. […]

## CCCCC/C=C\C/C=C\CCCCCCCCN(CCCCCCCC/C=C\C/C=C\CCCCC)c1ccc(C=Cc2cc[n+](C)cc2)cc1.O=S(=O)([O-])c1ccc(Cl)cc1 [DiA]
[1]
  fluorescence after two-photon photobleaching test: significantly photo-bleached

## c1csc(-c2ccc(-c3ccc(-c4ccc(-c5ccc(-c6cccs6)s5)s4)s3)s2)c1 [6T, α-sexithiophene]
[2]
  change in PL after oxygen plasma: completely vanished
[3]; free 6T in FLAMES, incubation time of only few minutes
  state of daphniids after first incubation test: found dead
[3]; group B, incubated directly with 6T at 100 ug/mL
  time after which individuals died: 20 h
